Measurements published in ChEMBL document CHEMBL1133867, “Design, synthesis, and SAR of heterocycle-containing antagonists of the human CCR5 receptor for the treatment of HIV-1 infection” (Bioorg Med Chem Lett, 2001).

How the values were obtained:
[1] = molecular target: T1, C-C chemokine receptor type 5 (Homo sapiens, UniProt P51681); test: Binding affinity against C-C chemokine receptor type 5 stably expressed in Chinese hamster ovary (CHO) cells using [125I]-MIP-1 alpha as the radioligand; assay type: cell-based
[2] = molecular target: T2, C-C chemokine receptor type 1 (Homo sapiens, UniProt P32246); test: Compound was evaluated for inhibitory activity against C-C chemokine receptor type 1
T2 sequence (P32246 whole entry): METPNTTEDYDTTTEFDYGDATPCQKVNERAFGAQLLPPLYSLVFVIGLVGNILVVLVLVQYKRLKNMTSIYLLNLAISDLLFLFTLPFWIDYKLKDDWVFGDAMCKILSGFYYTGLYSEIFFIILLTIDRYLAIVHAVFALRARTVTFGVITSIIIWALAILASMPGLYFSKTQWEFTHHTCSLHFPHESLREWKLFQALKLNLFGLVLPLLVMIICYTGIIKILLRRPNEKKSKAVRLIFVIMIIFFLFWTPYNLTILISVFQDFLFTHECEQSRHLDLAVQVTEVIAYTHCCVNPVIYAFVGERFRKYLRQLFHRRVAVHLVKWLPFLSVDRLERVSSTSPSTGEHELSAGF

[3] = system: HeLa; test: Antiviral activity against HeLa Magi cells expressing both CXCR4 and CCR5 in a 48 hr single cycle HIV (BAL) infection assay; assay type: functional; conditions: Homo sapiens
[4] = molecular target: T3, C-C chemokine receptor type 4 (Homo sapiens, UniProt P51679); test: Compound was evaluated for its inhibitory activity against C-C chemokine receptor type 4
T3 sequence (P51679 whole entry): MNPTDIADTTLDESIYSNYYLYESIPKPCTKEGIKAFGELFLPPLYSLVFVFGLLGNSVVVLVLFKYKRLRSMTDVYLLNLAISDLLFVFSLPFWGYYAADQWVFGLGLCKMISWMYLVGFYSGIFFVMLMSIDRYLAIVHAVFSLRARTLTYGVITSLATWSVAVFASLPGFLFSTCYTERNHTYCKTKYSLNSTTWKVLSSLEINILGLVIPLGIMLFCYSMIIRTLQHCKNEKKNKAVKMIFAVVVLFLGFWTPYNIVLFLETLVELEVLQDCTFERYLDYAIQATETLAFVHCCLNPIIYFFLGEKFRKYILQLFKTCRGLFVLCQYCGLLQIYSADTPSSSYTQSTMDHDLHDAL

[5] = molecular target: C-X-C chemokine receptor type 4 (Homo sapiens, UniProt P61073); test: Compound was evaluated for its inhibitory activity against C-X-C chemokine receptor type 4
[6] = molecular target: C-C chemokine receptor type 2 (Homo sapiens, UniProt P41597); test: Compound was evaluated for its inhibitory activity against C-C chemokine receptor type 2
[7] = molecular target: T4, C-C chemokine receptor type 3 (Homo sapiens, UniProt P51677); test: Compound was evaluated for its inhibitory activity against C-C chemokine receptor type 3
T4 sequence (P51677 whole entry): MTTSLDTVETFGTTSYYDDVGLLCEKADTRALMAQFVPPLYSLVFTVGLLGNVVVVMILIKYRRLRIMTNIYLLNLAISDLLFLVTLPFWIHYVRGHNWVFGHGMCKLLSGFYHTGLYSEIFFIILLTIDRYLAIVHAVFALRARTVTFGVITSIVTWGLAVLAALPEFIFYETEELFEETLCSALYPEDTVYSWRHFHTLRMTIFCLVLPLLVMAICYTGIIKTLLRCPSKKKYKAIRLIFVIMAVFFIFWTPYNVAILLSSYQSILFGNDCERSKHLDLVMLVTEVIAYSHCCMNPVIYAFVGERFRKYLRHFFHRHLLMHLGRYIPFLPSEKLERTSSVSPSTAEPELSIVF

[8] = Oral bioavailability in rat; assay type: ADME, organism-based; conditions: in vivo
[9] = Clearance in rat.; assay type: ADME, organism-based; conditions: in vivo
[10] = molecular target: T1, C-C chemokine receptor type 5; test: Binding affinity against human CCR5 receptor stably expressed in Chinese hamster ovary (CHO) cells using [125I]-MIP-1 alpha as the radioligand; assay type: cell-based

T1 sequence (P51681 whole entry): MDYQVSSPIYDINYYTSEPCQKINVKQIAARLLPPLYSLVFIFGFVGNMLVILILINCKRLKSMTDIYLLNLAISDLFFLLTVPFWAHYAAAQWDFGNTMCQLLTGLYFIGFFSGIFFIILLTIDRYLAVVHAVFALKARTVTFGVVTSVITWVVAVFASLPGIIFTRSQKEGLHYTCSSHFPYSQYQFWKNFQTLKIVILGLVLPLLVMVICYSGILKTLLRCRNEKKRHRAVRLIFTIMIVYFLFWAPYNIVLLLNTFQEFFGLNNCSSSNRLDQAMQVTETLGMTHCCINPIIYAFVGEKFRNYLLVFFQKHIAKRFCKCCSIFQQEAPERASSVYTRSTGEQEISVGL
C-C chemokine receptor type 2, sequence (P41597 whole entry): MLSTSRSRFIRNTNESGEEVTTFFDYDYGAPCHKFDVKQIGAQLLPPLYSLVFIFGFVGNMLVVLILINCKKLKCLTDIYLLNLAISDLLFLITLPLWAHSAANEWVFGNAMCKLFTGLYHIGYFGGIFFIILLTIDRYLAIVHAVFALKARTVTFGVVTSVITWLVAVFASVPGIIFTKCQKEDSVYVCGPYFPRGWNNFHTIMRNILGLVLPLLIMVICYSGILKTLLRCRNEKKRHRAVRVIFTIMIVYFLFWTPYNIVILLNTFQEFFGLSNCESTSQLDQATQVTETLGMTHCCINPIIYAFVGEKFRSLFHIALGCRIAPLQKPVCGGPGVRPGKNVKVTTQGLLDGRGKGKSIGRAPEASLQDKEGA
C-X-C chemokine receptor type 4, sequence (P61073 whole entry): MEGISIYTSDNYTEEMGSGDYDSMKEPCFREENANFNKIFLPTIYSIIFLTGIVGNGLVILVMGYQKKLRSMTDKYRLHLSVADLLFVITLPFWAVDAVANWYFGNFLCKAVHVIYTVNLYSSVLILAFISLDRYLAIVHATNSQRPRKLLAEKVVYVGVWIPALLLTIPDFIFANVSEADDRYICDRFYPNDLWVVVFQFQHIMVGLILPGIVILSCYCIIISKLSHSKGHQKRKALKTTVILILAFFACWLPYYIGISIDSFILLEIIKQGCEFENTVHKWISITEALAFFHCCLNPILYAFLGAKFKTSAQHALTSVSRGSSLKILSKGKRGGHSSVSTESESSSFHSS

SMILES: C=CCN(C(=O)OCc1ccc([N+](=O)[O-])cc1)C1CCN(CCC(Cn2nnc(-c3ccccc3)n2)c2ccccc2)CC1 (stereo not drawn)
- IC50 [1]: 111 nM

SMILES: C=CCN(C(=O)OCc1ccccc1)C1CCN(CCC(Cn2cnc3ccccc32)c2ccccc2)CC1 (stereo not drawn)
- IC50 [2]: > 1000 nM
- IC90 [3]: > 3000 nM
- IC50 [4]: > 1000 nM
- IC50 [5]: > 1000 nM
- IC50 [6]: > 1000 nM
- IC50 [1]: 25 nM
- IC50 [7]: > 1000 nM

SMILES: C=CCN(C(=O)OCc1ccccc1)C1CCN(CCC(C)(CN2C(=O)N[C@H](Cc3c[nH]c4ccccc34)C2=O)c2ccccc2)CC1 (stereo partly drawn)
- bioavailability [8]: 1%
- clearance [9]: 84 mL/min/kg

SMILES: C=CCN(C(=O)OCc1ccc([N+](=O)[O-])cc1)C1CCN(CCC(Cn2nnnc2-c2ccccc2)c2ccccc2)CC1 (stereo not drawn)
- IC50 [1]: 335 nM

SMILES: C=CCN(C(=O)OCc1ccc([N+](=O)[O-])cc1)C1CCN(CCC(C)(Cn2cnc3ccccc32)c2ccccc2)CC1 (stereo not drawn)
- IC50 [2]: > 1000 nM
- IC90 [3]: 1000 nM
- IC50 [4]: > 1000 nM
- IC50 [5]: > 1000 nM
- IC50 [6]: > 1000 nM
- IC50 [1]: 10 nM
- IC50 [7]: > 1000 nM

SMILES: C=CCN(C(=O)OCc1ccc([N+](=O)[O-])cc1)C1CCN(CCC(Cn2cnc(Cl)c2Cl)c2ccccc2)CC1 (stereo not drawn)
- IC50 [1]: 16 nM

SMILES: C=CCN(C(=O)OCc1ccc([N+](=O)[O-])cc1)C1CCN(CCC(Cn2cncn2)c2ccccc2)CC1 (stereo not drawn)
- IC50 [1]: 28 nM

SMILES: C=CCN(C(=O)OCc1ccccc1)C1CCN(CCC(C)(Cn2cnc3ccccc32)c2ccccc2)CC1 (stereo not drawn)
- IC50 [2]: > 1000 nM
- IC50 [4]: > 1000 nM
- IC50 [5]: > 1000 nM
- IC50 [6]: > 1000 nM
- IC50 [1]: 112 nM
- IC50 [7]: > 1000 nM

SMILES: C=CCN(C(=O)OCc1ccc([N+](=O)[O-])cc1)C1CCN(CCC(Cn2cc3ccccc3n2)c2ccccc2)CC1 (stereo not drawn)
- IC50 [1]: 27 nM

SMILES: C=CCN(C(=O)OCc1ccc([N+](=O)[O-])cc1)C1CCN(CCC(Cn2cnc3ccccc32)c2ccccc2)CC1 (stereo not drawn)
- IC50 [2]: > 1000 nM
- IC90 [3]: 1000 nM
- IC50 [4]: > 1000 nM
- IC50 [5]: > 1000 nM
- IC50 [6]: > 1000 nM
- IC50 [1]: 4 nM
- bioavailability [8]: 14%
- clearance [9]: 49 mL/min/kg
- IC50 [7]: > 1000 nM

SMILES: C=CCN(C(=O)OCc1ccc([N+](=O)[O-])cc1)C1CCN(CCC(Cn2cnc(CC#N)c2)c2ccccc2)CC1 (stereo not drawn)
- IC50 [1]: 15 nM

SMILES: C=CCN(C(=O)OCc1ccc([N+](=O)[O-])cc1)C1CCN(CCC(Cn2c(CC)nc3ccccc32)c2ccccc2)CC1 (stereo not drawn)
- IC50 [2]: > 1000 nM
- IC90 [3]: 3000 nM
- IC50 [4]: > 1000 nM
- IC50 [5]: > 1000 nM
- IC50 [6]: > 1000 nM
- IC50 [1]: 48 nM
- IC50 [7]: > 1000 nM

SMILES: C=CCN(C(=O)OCc1ccc([N+](=O)[O-])cc1)C1CCN(CCC(Cn2cnc(-c3ccccc3)c2)c2ccccc2)CC1 (stereo not drawn)
- IC50 [1]: 23 nM

SMILES: C=CCN(C(=O)OCc1ccccc1)C1CCN(CCC(Cn2c(CC)nc3ccccc32)c2ccccc2)CC1 (stereo not drawn)
- IC50 [2]: > 1000 nM
- IC50 [4]: > 1000 nM
- IC50 [5]: > 1000 nM
- IC50 [6]: > 1000 nM
- IC50 [1]: 246 nM
- IC50 [7]: > 1000 nM

SMILES: C=CCN(C(=O)OCc1ccc([N+](=O)[O-])cc1)C1CCN(CCC(Cn2cnc([N+](=O)[O-])c2)c2ccccc2)CC1 (stereo not drawn)
- IC50 [1]: 15 nM

SMILES: C=CCN(C(=O)OCc1ccc([N+](=O)[O-])cc1)C1CCN(CCC(Cn2ncc3ccccc32)c2ccccc2)CC1 (stereo not drawn)
- IC50 [1]: 15 nM

SMILES: CN(C[C@@H](CCN1CCC2(CC1)C[S+]([O-])c1ccccc12)c1cccc(Cl)c1)S(=O)(=O)c1ccccc1 (stereo partly drawn)
- IC50 [10]: 35 nM

SMILES: C=CCN(C(=O)OCc1ccccc1)C1CCN(CCC(C)(c2ccccc2)C2Nc3ccccc3S(=O)(=O)N2)CC1 (single isomer, unassigned)
- IC50 [1]: 55 nM

SMILES: C=CCN(C(=O)OCc1ccc([N+](=O)[O-])cc1)C1CCN(CCC(C)(c2ccccc2)C2c3ccccc3C(=O)N2CC)CC1 (single isomer, unassigned; form 1)
- IC50 [1]: 18 nM

SMILES: C=CCN(C(=O)OCc1ccc([N+](=O)[O-])cc1)C1CCN(CCC(C)(c2ccccc2)C2c3ccccc3C(=O)N2CC)CC1 (single isomer, unassigned; form 2)
- IC50 [1]: 10 nM

SMILES: C=CCN(C(=O)OCc1ccccc1)C1CCN(CCC(C)(c2ccccc2)C2Nc3ccccc3S(=O)(=O)N2)CC1 (stereo in doubt)
- IC50 [1]: 18 nM
